Assay results from ChEMBL document CHEMBL1150601, “Lyngbouilloside, a novel glycosidic macrolide from the marine cyanobacterium Lyngbya bouillonii” (J Nat Prod, 2002).

Assay: Cytotoxicity against mouse Neuro2a cells
Type: functional, cell-based
Details: N2a

## CC/C=C/C=C/CC[C@]1(C)C[C@H](O)[C@H](C)CC[C@H]2C[C@@H](O[C@@H]3O[C@@H](C)[C@H](OC)[C@@H](O)[C@H]3OC)C[C@@](O)(CC(=O)O1)O2 [LYNGBOUILLOSIDE]
  IC50: 17 µM
